Results reported in PubChem BioAssay AID2060890 (Molecular Pharmacology Branch, DTP, NCI, 2025).

Test system: LG0703-F948-PDC complex spheroid viability
Assay: Anticancer human tumor LG0703-F948-PDC patient-derived lung adenocarcinoma cell line growth inhibition [RAS]
Details: for IC50: curve of first compound; for viability, T/C: stronger effect = lower value; active = viability on the fitted dose curve at most 10% of control; inactive = the rest
Procedure, shortened: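 Multi-cell-type spheroids: tumor cells plus HUVEC endothelial cells and mesenchymal stem cells. RAS-pathway inhibitors were combined with targeted agents, each dosed in half-log steps down from clinical Cmax, or from 10 microM when Cmax was unknown.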

[1] = second compound 0.000949 µM, first compound 0.00316 µM
[2] = second compound 0.000949 µM, first compound 0.01 µM
[3] = second compound 0.000949 µM, first compound 0.0316 µM
[4] = second compound 0.000949 µM, first compound 0.1 µM
[5] = second compound 0.000949 µM, first compound 0.316 µM
[6] = second compound 0.000949 µM, first compound 1 µM
[7] = second compound 0.003 µM, first compound 0.00316 µM
[8] = second compound 0.003 µM, first compound 0.01 µM
[9] = second compound 0.003 µM, first compound 0.0316 µM
[10] = second compound 0.003 µM, first compound 0.1 µM
[11] = second compound 0.003 µM, first compound 0.316 µM
[12] = second compound 0.003 µM, first compound 1 µM
[13] = second compound 0.00949 µM, first compound 0.00316 µM
[14] = second compound 0.00949 µM, first compound 0.01 µM
[15] = second compound 0.00949 µM, first compound 0.0316 µM
[16] = second compound 0.00949 µM, first compound 0.1 µM
[17] = second compound 0.00949 µM, first compound 0.316 µM
[18] = second compound 0.00949 µM, first compound 1 µM
[19] = second compound 0.03 µM, first compound 0.00316 µM
[20] = second compound 0.03 µM, first compound 0.01 µM
[21] = second compound 0.03 µM, first compound 0.0316 µM
[22] = second compound 0.03 µM, first compound 0.1 µM
[23] = second compound 0.03 µM, first compound 0.316 µM
[24] = second compound 0.03 µM, first compound 1 µM
[25] = second compound 0.0949 µM, first compound 0.00316 µM
[26] = second compound 0.0949 µM, first compound 0.01 µM
[27] = second compound 0.0949 µM, first compound 0.0316 µM
[28] = second compound 0.0949 µM, first compound 0.1 µM
[29] = second compound 0.0949 µM, first compound 0.316 µM
[30] = second compound 0.0949 µM, first compound 1 µM
[31] = second compound 0.3 µM, first compound 0.00316 µM
[32] = second compound 0.3 µM, first compound 0.01 µM
[33] = second compound 0.3 µM, first compound 0.0316 µM
[34] = second compound 0.3 µM, first compound 0.1 µM
[35] = second compound 0.3 µM, first compound 0.316 µM
[36] = second compound 0.3 µM, first compound 1 µM
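Note: spheroids exposed to agents for 7 days.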
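Throughout, for viability, T/C: 100% = DMSO vehicle wells.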

C=CC(=O)N1CCN(c2nc(OCC3CCCN3C)nc3c(F)c(-c4nc(N)cc(C)c4C(F)(F)F)c(Cl)cc23)C(C)C1 (stereo not drawn) + CCn1c(-c2cc(N3CCN(C)CC3)cnc2C(C)OC)c2c3cc(ccc31)-c1csc(n1)CC(NC(=O)C1CC1C)C(=O)N1CCCC(N1)C(=O)OCC(C)(C)C2
inactive: viability, T/C [1] 68% | viability, T/C [2] 75.1% | viability, T/C [3] 71% | viability, T/C [4] 66.5% | viability, T/C [5] 69.9% | viability, T/C [6] 62.6% | viability, T/C [7] 45.5% | viability, T/C [8] 40.5% | viability, T/C [9] 43.4% | viability, T/C [10] 44% | viability, T/C [11] 47.3% | viability, T/C [12] 49% | viability, T/C [13] 24.9% | viability, T/C [14] 26.1% | viability, T/C [15] 27.9% | viability, T/C [16] 17.7% | viability, T/C [17] 25.9% | viability, T/C [18] 25.5% | viability, T/C [19] 13.4% | viability, T/C [20] 14.6% | viability, T/C [21] 16.2% | viability, T/C [22] 13.1% | viability, T/C [23] 18.8% | viability, T/C [24] 13.9% | viability, T/C [25] 14.2% | viability, T/C [26] 16.3% | viability, T/C [27] 11.3% | viability, T/C [28] 11% | viability, T/C [29] 15.2% | viability, T/C [30] 15.9% | viability, T/C [31] 10.4% | viability, T/C [32] 8.07% | viability, T/C [33] 9.51% | viability, T/C [34] 11.9% | viability, T/C [35] 11.5% | viability, T/C [36] 10.8%
< 3.16 nM: IC50 (second compound 0.003 µM) | IC50 (second compound 0.00949 µM) | IC50 (second compound 0.03 µM) | IC50 (second compound 0.0949 µM) | IC50 (second compound 0.3 µM)
> 1000 nM: IC50 (second compound 0.000949 µM)

CC1(C)CCC(Nc2ncc(C(F)(F)F)c(-c3c[nH]c4c(P(C)(C)=O)c(C#N)ccc34)n2)CN1 (stereo not drawn) + CCn1c(-c2cc(N3CCN(C)CC3)cnc2C(C)OC)c2c3cc(ccc31)-c1csc(n1)CC(NC(=O)C1CC1C)C(=O)N1CCCC(N1)C(=O)OCC(C)(C)C2
> 300 nM: IC50 (second compound 0.000949 µM)
< 0.949 nM: IC50 (second compound 0.003 µM) | IC50 (second compound 0.00949 µM) | IC50 (second compound 0.03 µM) | IC50 (second compound 0.0949 µM) | IC50 (second compound 0.3 µM)
inactive: viability, T/C (second compound 0.000949 µM, first compound 0.000949 µM) 70.9% | viability, T/C (second compound 0.000949 µM, first compound 0.003 µM) 58.2% | viability, T/C (second compound 0.000949 µM, first compound 0.00949 µM) 54.9% | viability, T/C (second compound 0.000949 µM, first compound 0.03 µM) 64.2% | viability, T/C (second compound 0.000949 µM, first compound 0.0949 µM) 69.8% | viability, T/C (second compound 0.000949 µM, first compound 0.3 µM) 66% | viability, T/C (second compound 0.003 µM, first compound 0.000949 µM) 50.5% | viability, T/C (second compound 0.003 µM, first compound 0.003 µM) 38.7% | viability, T/C (second compound 0.003 µM, first compound 0.00949 µM) 43.2% | viability, T/C (second compound 0.003 µM, first compound 0.03 µM) 39% | viability, T/C (second compound 0.003 µM, first compound 0.0949 µM) 40.1% | viability, T/C (second compound 0.003 µM, first compound 0.3 µM) 44.5% | viability, T/C (second compound 0.00949 µM, first compound 0.000949 µM) 27.3% | viability, T/C (second compound 0.00949 µM, first compound 0.003 µM) 26.4% | viability, T/C (second compound 0.00949 µM, first compound 0.00949 µM) 25.1% | viability, T/C (second compound 0.00949 µM, first compound 0.03 µM) 31.8% | viability, T/C (second compound 0.00949 µM, first compound 0.0949 µM) 26.6% | viability, T/C (second compound 0.00949 µM, first compound 0.3 µM) 33.8% | viability, T/C (second compound 0.03 µM, first compound 0.000949 µM) 15.2% | viability, T/C (second compound 0.03 µM, first compound 0.003 µM) 14.4% | viability, T/C (second compound 0.03 µM, first compound 0.00949 µM) 17.2% | viability, T/C (second compound 0.03 µM, first compound 0.03 µM) 19.4% | viability, T/C (second compound 0.03 µM, first compound 0.0949 µM) 18.3% | viability, T/C (second compound 0.03 µM, first compound 0.3 µM) 20.3% | viability, T/C (second compound 0.0949 µM, first compound 0.000949 µM) 12.3% | viability, T/C (second compound 0.0949 µM, first compound 0.003 µM) 11.9% | viability, T/C (second compound 0.0949 µM, first compound 0.00949 µM) 12.3% | viability, T/C (second compound 0.0949 µM, first compound 0.03 µM) 12.9% | viability, T/C (second compound 0.0949 µM, first compound 0.0949 µM) 14.1% | viability, T/C (second compound 0.0949 µM, first compound 0.3 µM) 9.28% | viability, T/C (second compound 0.3 µM, first compound 0.000949 µM) 9.53% | viability, T/C (second compound 0.3 µM, first compound 0.003 µM) 9.6% | viability, T/C (second compound 0.3 µM, first compound 0.00949 µM) 8.69% | viability, T/C (second compound 0.3 µM, first compound 0.03 µM) 12.3% | viability, T/C (second compound 0.3 µM, first compound 0.0949 µM) 12.7% | viability, T/C (second compound 0.3 µM, first compound 0.3 µM) 10.1%

C=CC(=O)Nc1cc(Nc2nccc(-c3cn(C)c4ccccc34)n2)c(OC)cc1N(C)CCN(C)C + CCn1c(-c2cccnc2C(C)OC)c2c3cc(ccc31)N1CCOC(CC(NC(=O)C(C(C)C)N(C)C(=O)C3(F)CCN(C(=O)C#CC(C)(C)N(C)C)CC3)C(=O)N3CCCC(N3)C(=O)OCC(C)(C)C2)C1
4.89 nM: IC50 (second compound 0.0949 µM)
13.9 nM: IC50 (second compound 0.003 µM)
< 3.16 nM: IC50 (second compound 0.3 µM)
9.92 nM: IC50 (second compound 0.03 µM)
12.1 nM: IC50 (second compound 0.00949 µM)
13.1 nM: IC50 (second compound 0.000949 µM)
inactive: viability, T/C [1] 78.5% | viability, T/C [2] 56.9% | viability, T/C [3] 27.3% | viability, T/C [4] 20.5% | viability, T/C [5] 19.1% | viability, T/C [6] 13.9% | viability, T/C [7] 88.6% | viability, T/C [8] 57.5% | viability, T/C [9] 31.1% | viability, T/C [10] 21.5% | viability, T/C [11] 16.2% | viability, T/C [12] 15.6% | viability, T/C [13] 83.4% | viability, T/C [14] 55.6% | viability, T/C [15] 22.3% | viability, T/C [16] 18.5% | viability, T/C [17] 19.7% | viability, T/C [18] 15.2% | viability, T/C [19] 82.6% | viability, T/C [20] 49.6% | viability, T/C [21] 26.6% | viability, T/C [22] 15.5% | viability, T/C [23] 17.4% | viability, T/C [24] 14.4% | viability, T/C [25] 60.2% | viability, T/C [26] 33.1% | viability, T/C [27] 21.2% | viability, T/C [28] 14.9% | viability, T/C [29] 13.9% | viability, T/C [30] 12.1% | viability, T/C [31] 29.1% | viability, T/C [32] 17.5% | viability, T/C [33] 9.89% | viability, T/C [34] 9.16% | viability, T/C [35] 9.3% | viability, T/C [36] 13.5%

O=C(c1ccc(F)c(F)c1Nc1ccc(I)cc1F)N1CC(O)([C@@H]2CCCCN2)C1 + CCn1c(-c2cccnc2C(C)OC)c2c3cc(ccc31)N1CCOC(CC(NC(=O)C(C(C)C)N(C)C(=O)C3(F)CCN(C(=O)C#CC(C)(C)N(C)C)CC3)C(=O)N3CCCC(N3)C(=O)OCC(C)(C)C2)C1
< 3.16 nM: IC50 (second compound 0.3 µM)
79.9 nM: IC50 (second compound 0.000949 µM)
22.7 nM: IC50 (second compound 0.0949 µM)
63.9 nM: IC50 (second compound 0.003 µM)
inactive: viability, T/C [1] 93.7% | viability, T/C [2] 93.3% | viability, T/C [3] 64.2% | viability, T/C [4] 48.2% | viability, T/C [5] 33.4% | viability, T/C [6] 28.2% | viability, T/C [7] 97.1% | viability, T/C [8] 79.8% | viability, T/C [9] 60.5% | viability, T/C [10] 40.7% | viability, T/C [11] 38.4% | viability, T/C [12] 27.2% | viability, T/C [13] 87.3% | viability, T/C [14] 88.3% | viability, T/C [15] 70% | viability, T/C [16] 46.9% | viability, T/C [17] 30.6% | viability, T/C [18] 21.6% | viability, T/C [19] 96.2% | viability, T/C [20] 76.1% | viability, T/C [21] 60.9% | viability, T/C [22] 42.7% | viability, T/C [23] 33.1% | viability, T/C [24] 21.9% | viability, T/C [25] 69.4% | viability, T/C [26] 61% | viability, T/C [27] 44.2% | viability, T/C [28] 33.5% | viability, T/C [29] 20.9% | viability, T/C [30] 12.4% | viability, T/C [31] 41.6% | viability, T/C [32] 35.4% | viability, T/C [33] 24% | viability, T/C [34] 13.1%
active: viability, T/C [35] 13.1% | viability, T/C [36] 5.27%
87.3 nM: IC50 (second compound 0.00949 µM)
65.1 nM: IC50 (second compound 0.03 µM)
